According to patent publication US20250051283A1, “THERAPEUTIC COMPOUNDS AND METHODS” (priority 2023, published 2025):

Experiments:
[1] = tested on: EV-D68 US/MO/14-18947; assay: CPE assay (neutral red) with EV-D68 US/MO/14-18947 in R.D. cells; format: cell-based, Enterovirus D68; settings: CPE assay, EV-D68 US/MO/14-18947 in R.D. cells
Summary of the method: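 R.D. cells infected (DMEM, 2% FBS, 30 mM MgCl2) for ≥1 h at 33° C before compound addition; CPE read by neutral red uptake ([…], 2 h, A540), plaque reduction under 1.2% avicel overlay, stained after 3 days. EC50 and CC50 (uninfected cells) from dose-response curve fits.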

[2] = Cytotoxicity by neutral red uptake in R.D. cells, no viral infection; format: cell-based, Human; settings: human, R.D. (rhabdomyosarcoma, ATCC CCL-136) cells, uninfected
Experimental: (§1) Cell lines and viruses. Human rhabdomyosarcoma (R.D., ATCC, CCL-136) cells were maintained at 37° C. in a 5% CO2 atmosphere and cultured in Dulbecco's modified Eagle's medium (DMEM) supplemented with 10% fetal bovine serum (FBS) and 1% penicillin-streptomycin antibiotics. The following reagents were obtained through BEI Resources, NIAID, NIH: Human Enterovirus D68, US/MO/14-18949, NR-49130; Enterovirus D68, US/MO/14-18947, NR-49129; Enterovirus D68, US/IL/14-18952, NR-49131; Enterovirus D68, US/KY/14-18953, NR-49132; Enterovirus D68, US/IL/14-18956, NR-49133.
(§2) Antiviral assays. Cells for antiviral assays were seeded and grown overnight at 37° C. in a 5% CO2 atmosphere for ˜90% confluency the next day. For all infections, cells were washed with PBS containing magnesium and calcium and infected with virus diluted in DMEM with 2% FBS and 30 mM MgCl2. Viruses were incubated for at least 1 h at 33° C. in a 5% CO2 atmosphere, followed by the addition of compound as well as 1% penicillin-streptomycin. For CC50 measurements, the experiment was performed similarly but excluded viral infection. For cytopathic effect (CPE) assays, cells were stained with 66 µg/mL neutral red for 2 h and neutral red uptake was measured at absorbance 540 nm using a Multiskan FC Microplate Photometer (ThermoFisher Scientific). The EC50 and CC50 values were calculated from best-fit dose response curves using GraphPad Prism. For plaque reduction assays, an 1.2% avicel microcrystalline cellulose (FMC BioPolymer, Philadelphia, PA) overlay was used and cells were stained after 3 days as previously described^26.

[3] = tested on: EV-D68 US/MO/14-18947 (clade B1); assay: Broad-spectrum antiviral activity (Table 1), US/MO/14-18947; format: cell-based; settings: Enterovirus D, EVD68
Experimental: as §1
as §2, with “For CC50 measurements, the experiment was performed similarly but excluded viral infection.” left out, “For plaque reduction assays, an 1.2% avicel microcrystalline cellulose (FMC BioPolymer, Philadelphia, PA) overlay was used and cells were stained after 3 days as previously described^26.” left out

[4] = tested on: five strains of EV-D68 (B1, B2, and D clades); assay: Broad-spectrum antiviral activity, summary over five EV-D68 strains; format: cell-based, Enterovirus D68
Experimental: as §1
as §2, with “For CC50 measurements, the experiment was performed similarly but excluded viral infection.” left out, “For plaque reduction assays, an 1.2% avicel microcrystalline cellulose (FMC BioPolymer, Philadelphia, PA) overlay was used and cells were stained after 3 days as previously described^26.” left out

[5] = tested on: EV-D68 US/IL/14-18952 (clade B2); assay: Broad-spectrum antiviral activity (Table 1), US/IL/14-18952; format: cell-based, Enterovirus D68; settings: Enterovirus D, EVD68; EV-D68 US/IL/14-18952 (clade B2); read-out: EC50
Experimental: as §1
as §2, with “For CC50 measurements, the experiment was performed similarly but excluded viral infection.” left out, “For plaque reduction assays, an 1.2% avicel microcrystalline cellulose (FMC BioPolymer, Philadelphia, PA) overlay was used and cells were stained after 3 days as previously described^26.” left out

[6] = target: EV-D68 2A^pro (Enterovirus D68, UniProt A0A097BW19); assay: FRET-based enzymatic assay of EV-D68 2Apro inhibition; format: biochemical
EV-D68 2A^pro, sequence (A0A097BW19 entry or part of it): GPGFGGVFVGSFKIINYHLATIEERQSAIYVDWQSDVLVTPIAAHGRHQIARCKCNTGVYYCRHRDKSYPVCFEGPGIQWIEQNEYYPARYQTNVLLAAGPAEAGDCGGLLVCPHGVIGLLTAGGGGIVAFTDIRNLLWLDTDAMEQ
Experimental: Protein expression and purification. EV-D68 2A^pro gene from strain US/KY/14-18953 was ordered from Genscript (Piscataway, NJ) in pET28b(+) vector with E. coli codon optimization. 2A^pro gene was subcloned into pE-SUMOstar vector according to the manufacturers protocol. Plasmid encoding WT-2A^pro was transformed into BL21(DE3) competent E. coli cells, and a single colony was picked and used to inoculate 10 mL of L.B. grown supplemented with 50 μg/mL kanamycin at 37° C. at 250 rpm. The 10 mL inoculant was added to 1 L of L.B. with 50 μg/mL kanamycin and grown to an OD600 of 0.8-1.0, cooled to 18° C., then induced using 0.5 mM IPTG. Induced cultures were incubated at 18° C. for an additional 24 h, then harvested and resuspended in lysis buffer (25 mM Tris (pH 7.5); 750 mM NaCl, 2 mM DTT with 0.5 mg/mL lysozyme, 0.5 mM PMSF and 0.02 mg/mL DNase I) and lysed with alternating sonication and French press cycles. The cell debris were removed by centrifugation at 12,000×g for 45 min […]. The supernatant was incubated with Ni-NTA resin for over 2 h at 4° C. on a rotator. The Ni-NTA resin was thoroughly washed with 50 mM imidazole in wash buffer (50 mM Tris (pH 7.5), 150 mM NaCl, and 2 mM DTT); for the SUMO-tagged protein, the protein was directly eluted with 300 mM imidazole; for the nontagged 2A^pro Ni-NTA resin was treated with SUMO Protease 1 to remove the SUMO tag, then 2A^pro was washed off from the column with 10 mM imidazole in wash buffer. The imidazole was removed via dialysis or 10 K molecular weight cut-off centrifugal concentrator spin column. The purity of the protein was confirmed with SDS-PAGE. The protein concentration was determined by classic BCA assay using bovine serum albumin as a standard. EV-D68 3C^pro in pET28b(+) vector was expressed as previously described^10.
Peptide synthesis. The FRET substrate of EV-D68 2A^pro, Dabcyl-KIRIVNT/GPGFGGE-Edans, was synthesized using the Fmoc solid phase synthesis strategy.
Enzymatic assays. The reaction buffer contains 50 mM Tris (pH7.0), 150 mM NaCl, 10% Glycerol, and 2 mM DTT, and the reaction was carried out at 30° C. in Cytation 5 imaging reader (Fisher Scientific) with EX360/40-EM460/40 filter. Reactions were monitored every 90 sec. […] The reaction was initiated by adding 20 μM of FRET substrate, and the reaction was monitored for 2 hours and initial velocity was calculated for the first 30 minutes via linear regression.

With CC(C)(C)C(NC(=O)CC12CC3CC(CC(C3)C1)C2)C(=O)N1CC2CCCC2C1C(=O)NC(C(=O)C(=O)NC1CC1)C1CCCCC1 [Jun11762, (1S,3aR,6aS)-2-((S)-2-(2-((3S,5S,7S)-adamantan-1-yl)acetamido)-3,3-dimethylbutanoyl)-N—((S)-1-cyclohexyl-3-(cyclopropylamino)-2,3-dioxopropyl)octahydrocyclopenta[c]pyrrole-1-carboxamide] the “antiviral activity, in words, relative to the named comparator” value [1] was “comparable enzymatic inhibition and antiviral activity as Jun8861”, the CC50 [2] was over 150 µM and the EC50 [3] was 43 ± 3.3 nM. The EC50 ([4]; Enterovirus D, EVD68, read-out: EC50 values over all five strains) was 43 to 269 nM, the “fold improvement of EC50 compared to telaprevir” value ([4]; five EV-D68 strains, versus telaprevir) was 3.1-4.6 fold and the EC50 [5] was 269 ± 21.9 nM. For the same compound, the “enzymatic inhibition, in words, relative to the named comparator” value [6] was “comparable enzymatic inhibition and antiviral activity as Jun8861”.
